Tests used:
Format in all cases: in vivo
Alopecurus myosuroides = experiment: Test Example 4: herbicidal effect by soil treatment (symbol J); settings: for J: Alopecurus myosuroides, herbicidal effect grade: 320 g/ha; for J (Alopecurus myosuroides) herbicidal effect grade: application herbicide amount 320 g/ha
Outline: (§1)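 Seeds were sown in sterilized diluvial soil, covered with about 1.5 cm of soil, and the soil surface was sprayed with a water-diluted emulsion of the compound at a predetermined rate. Plants grew in a greenhouse at 25° C. to 30° C.; effects were scored visually 3 weeks after application.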

Digitaria ciliaris = experiment: Test Example 4: herbicidal effect by soil treatment (symbol F); settings: for F: Digitaria ciliaris, herbicidal effect grade: 320 g/ha; for F (Digitaria ciliaris) herbicidal effect grade: application herbicide amount 320 g/ha
Outline: as §1

Monochoria vaginalis [1] = experiment: Test Example 1: herbicidal activity, application before weed generation in submerged conditions (symbol C); settings: application herbicide amount 320 g/ha
Outline: (§2)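 Compound emulsion was diluted to a set herbicide amount and applied to the water surface on the sowing day, into submerged (4 cm) alluvial-soil pots sown with mixed weed seeds and transplanted 2.5-leaf rice. Pots were held in a 25–30 °C greenhouse, and weeds were scored 0–5 by herbicidal ratio after 3 weeks.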

Avena fatua = experiment: Test Example 4: herbicidal effect by soil treatment (symbol I); settings: for I: Avena fatua, herbicidal effect grade: 320 g/ha; for I (Avena fatua) herbicidal effect grade: application herbicide amount 320 g/ha
Outline: as §1

Amaranthus retroflexus = experiment: Test Example 5: herbicidal effect by foliage application, plastic box (symbol N); settings: 320 g/ha, 3 weeks after application
Outline: (§3)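 Sowing in sterilized diluvial soil, 14 days' greenhouse growth at 25° C. to 30° C., then uniform small-sprayer foliar application of aqueous emulsion dilution; plants scored three weeks afterwards.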

Chenopodium album = experiment: Test Example 4: herbicidal effect by soil treatment (symbol O); settings: for O: Chenopodium album, herbicidal effect grade: 320 g/ha; for O (Chenopodium album) herbicidal effect grade: application herbicide amount 320 g/ha
Outline: as §1

[2] = tested on: Echinochloa oryzacola Vasing.; experiment: Test Example 1: herbicidal activity, application before weed generation in submerged conditions (symbol A); settings: application herbicide amount 320 g/ha
Outline: as §2

[3] = tested on: Echinochloa crus-galli var. crus-galli; experiment: Test Example 5: herbicidal effect by foliage application, plastic box (symbol H); settings: 320 g/ha, 3 weeks after application
Outline: as §3

Scirpus juncoides = experiment: Test Example 2: herbicidal activity, application during weed generation in submerged conditions (symbol B); settings: Table 23; application herbicide amount 320 g/ha; grade 0-5 by criteria of Test Example 1
Outline: (§4)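 Visual herbicidal ratings, taken three weeks after dosing, reflect post-emergence water-surface application to seedlings at one to two leaves. Conditions: co-sown weeds in alluvial soil flooded to 4 cm, greenhouse held at 25° C. to 30° C.; compound given as water-diluted emulsion at a fixed herbicide amount.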

Monochoria vaginalis [4] = experiment: Test Example 2: herbicidal activity, application during weed generation in submerged conditions (symbol C); settings: Table 23; application herbicide amount 320 g/ha; grade 0-5 by criteria of Test Example 1
Outline: as §4

rapeseed = experiment: Test Example 5: effect on crop by foliage application, plastic box (symbol g); settings: 320 g/ha, 3 weeks after application
Outline: (§5)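 Soil: sterilized diluvial. Container: plastic box, 21 × 13 cm, 7 cm deep. Sowing: spot-like, ~1.5 cm cover. Growth: greenhouse, 25° C. to 30° C.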

Abutilon theophrasti [5] = experiment: Test Example 5: herbicidal effect by foliage application, plastic box (symbol M); settings: 320 g/ha, 3 weeks after application
Outline: as §3

Abutilon theophrasti [6] = experiment: Test Example 4: herbicidal effect by soil treatment (symbol M); settings: for M: Abutilon theophrasti, herbicidal effect grade: 320 g/ha; for M (Abutilon theophrasti) herbicidal effect grade: application herbicide amount 320 g/ha
Outline: as §1

[7] = tested on: Echinochloa oryzacola Vasing.; experiment: Test Example 2: herbicidal activity, application during weed generation in submerged conditions (symbol A); settings: Table 23; application herbicide amount 320 g/ha; grade 0-5 by criteria of Test Example 1
Outline: as §4

rice = experiment: Test Example 4: effect on crop by soil treatment (symbol b); settings: for b: directly sowed rice plant, effect grade on crop: 320 g/ha; for b (directly sowed rice plant) effect on crop grade: application herbicide amount 320 g/ha
Outline: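 Grown at 25° C. to 30° C. in a greenhouse, the crops came from seed sown spot-wise in sterilized diluvial soil under roughly 1.5 cm of covering soil.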

beet = experiment: Test Example 5: effect on crop by foliage application, plastic box (symbol f); settings: 320 g/ha, 3 weeks after application
Outline: as §5

Structure (SMILES)	J: Alopecurus myosuroides, herbicidal effect grade (Alopecurus myosuroides)	F: Digitaria ciliaris, herbicidal effect grade (Digitaria ciliaris)	Herbicidal effect grade, C: Monochoria vaginalis (Monochoria vaginalis [1])	I: Avena fatua, herbicidal effect grade (Avena fatua)	N: Amaranthus retroflexus, herbicidal effect (criteria 0-5) (Amaranthus retroflexus)	O: Chenopodium album, herbicidal effect grade (Chenopodium album)	Herbicidal effect grade, A: Echinochloa oryzacola Vasing. [2]	H: Echinochloa crus-galli var. crus-galli, herbicidal effect (criteria 0-5) [3]	Herbicidal effect grade, B: Scirpus juncoides (Scirpus juncoides)	Herbicidal effect grade, C: Monochoria vaginalis (Monochoria vaginalis [4])	g: rapeseed, effect on crop (criteria 0-5) (rapeseed)	M: Abutilon theophrasti, herbicidal effect (criteria 0-5) (Abutilon theophrasti [5])	M: Abutilon theophrasti, herbicidal effect grade (Abutilon theophrasti [6])	Herbicidal effect grade, A: Echinochloa oryzacola Vasing. [7]	b: directly sowed rice plant, effect grade on crop (rice)	f: beet, effect on crop (criteria 0-5) (beet)	J (Alopecurus myosuroides) herbicidal effect grade (Alopecurus myosuroides)	F (Digitaria ciliaris) herbicidal effect grade (Digitaria ciliaris)	I (Avena fatua) herbicidal effect grade (Avena fatua)	N: Amaranthus retroflexus, herbicidal effect grade (Amaranthus retroflexus)	further results
CON=C(CC1CC(O)=C(c2c(C)cc(C)cc2C)C1=O)C1CCCCC1 (stereo not shown) [1-085]	3 (Herbicidal ratio of 40% or higher and lower than 70%)	0 (Herbicidal ratio of 5% or lower (almost no effect))	0 (Herbicidal ratio of 5% or lower (almost no effect))	0 (Herbicidal ratio of 5% or lower (almost no effect))	0 (Herbicidal ratio of 5% or lower (almost no effect))	0 (Herbicidal ratio of 5% or lower (almost no effect))	4 (Herbicidal ratio of 70% or higher and lower than 90%)	5 (Herbicidal ratio of 90% or more (almost completely withered))	0 (Herbicidal ratio of 5% or lower (almost no effect))	0 (Herbicidal ratio of 5% or lower (almost no effect))	1 (Herbicidal ratio of 5% or higher and lower than 20%)	0 (Herbicidal ratio of 5% or lower (almost no effect))	0 (Herbicidal ratio of 5% or lower (almost no effect))	3 (Herbicidal ratio of 40% or higher and lower than 70%)	5 (Herbicidal ratio of 90% or more (almost completely withered))	0 (Herbicidal ratio of 5% or lower (almost no effect))	–	–	–	–	–
CC(CC1CC(O)=C(c2c(C)cc(C)cc2C)C1=O)=NOC(C)(C)C (stereo not shown) [1-053]	–	–	0 (Herbicidal ratio of 5% or lower (almost no effect))	–	–	–	5 (Herbicidal ratio of 90% or more (almost completely withered))	–	0 (Herbicidal ratio of 5% or lower (almost no effect))	0 (Herbicidal ratio of 5% or lower (almost no effect))	–	–	–	4 (Herbicidal ratio of 70% or higher and lower than 90%)	–	–	3 (Herbicidal ratio of 40% or higher and lower than 70%)	5 (Herbicidal ratio of 90% or more (almost completely withered))	0 (Herbicidal ratio of 5% or lower (almost no effect))	0 (Herbicidal ratio of 5% or lower (almost no effect))	O (Chenopodium album) herbicidal effect grade (Chenopodium album): 0 (Herbicidal ratio of 5% or lower (almost no effect)); H: Echinochloa crus-galli var. crus-galli, herbicidal effect grade [3]: 4 (Herbicidal ratio of 70% or higher and lower than 90%); g: rapeseed, effect on crop grade (rapeseed): 4 (Herbicidal ratio of 70% or higher and lower than 90%); M: Abutilon theophrasti, herbicidal effect grade (Abutilon theophrasti [5]): 0 (Herbicidal ratio of 5% or lower (almost no effect)); M (Abutilon theophrasti) herbicidal effect grade (Abutilon theophrasti [6]): 1 (Herbicidal ratio of 5% or higher and lower than 20%); b (directly sowed rice plant) effect on crop grade (rice): 5 (Herbicidal ratio of 90% or more (almost completely withered)); f: beet, effect on crop grade (beet): 0 (Herbicidal ratio of 5% or lower (almost no effect))
CON=C(C)CC1CC(OC(=O)C2=C(Br)CCC2)=C(c2c(C)cc(C)cc2C)C1=O (stereo not shown) [1-089]	5 (Herbicidal ratio of 90% or more (almost completely withered))	5 (Herbicidal ratio of 90% or more (almost completely withered))	3 (Herbicidal ratio of 40% or higher and lower than 70%)	2 (Herbicidal ratio of 20% or higher and lower than 40%)	2 (Herbicidal ratio of 20% or higher and lower than 40%)	0 (Herbicidal ratio of 5% or lower (almost no effect))	5 (Herbicidal ratio of 90% or more (almost completely withered))	5 (Herbicidal ratio of 90% or more (almost completely withered))	4 (Herbicidal ratio of 70% or higher and lower than 90%)	3 (Herbicidal ratio of 40% or higher and lower than 70%)	4 (Herbicidal ratio of 70% or higher and lower than 90%)	4 (Herbicidal ratio of 70% or higher and lower than 90%)	2 (Herbicidal ratio of 20% or higher and lower than 40%)	5 (Herbicidal ratio of 90% or more (almost completely withered))	5 (Herbicidal ratio of 90% or more (almost completely withered))	0 (Herbicidal ratio of 5% or lower (almost no effect))	–	–	–	–	–
CON=C(C)CC1CC(OC(=O)C(C)Oc2ccccc2)=C(c2c(C)cc(C)cc2C)C1=O (stereo not shown) [1-060]	–	–	3 (Herbicidal ratio of 40% or higher and lower than 70%)	–	–	–	5 (Herbicidal ratio of 90% or more (almost completely withered))	–	4 (Herbicidal ratio of 70% or higher and lower than 90%)	0 (Herbicidal ratio of 5% or lower (almost no effect))	–	–	–	5 (Herbicidal ratio of 90% or more (almost completely withered))	–	–	5 (Herbicidal ratio of 90% or more (almost completely withered))	5 (Herbicidal ratio of 90% or more (almost completely withered))	3 (Herbicidal ratio of 40% or higher and lower than 70%)	0 (Herbicidal ratio of 5% or lower (almost no effect))	O (Chenopodium album) herbicidal effect grade (Chenopodium album): 0 (Herbicidal ratio of 5% or lower (almost no effect)); H: Echinochloa crus-galli var. crus-galli, herbicidal effect grade [3]: 5 (Herbicidal ratio of 90% or more (almost completely withered)); g: rapeseed, effect on crop grade (rapeseed): 4 (Herbicidal ratio of 70% or higher and lower than 90%); M: Abutilon theophrasti, herbicidal effect grade (Abutilon theophrasti [5]): 3 (Herbicidal ratio of 40% or higher and lower than 70%); M (Abutilon theophrasti) herbicidal effect grade (Abutilon theophrasti [6]): 4 (Herbicidal ratio of 70% or higher and lower than 90%); b (directly sowed rice plant) effect on crop grade (rice): 5 (Herbicidal ratio of 90% or more (almost completely withered)); f: beet, effect on crop grade (beet): 0 (Herbicidal ratio of 5% or lower (almost no effect))

Reference: US11000033B2, “Ketone or oxime compound, and herbicide” (NISSAN CHEMICAL CORPORATION, priority 2014, dated 2021)
